Key:
T48 cells = assay: Fluorescent apoptotic assay (Staurosporine, MR(DEVD)2) in TrkB stably transfected T48 cells; assay type: cell-based, murine
From the text: Create and test reporter cell lines. In order to identify small molecules that mimic BDNF and activate TrkB, TrkB stably transfected murine cell lines were created. The T48 and T62 cell lines were created by transfecting basal forebrain SN56 cells, which express negligible TrkB, with a TrkB expression construct. […] To test resistance to apoptosis, SN56 cells and the T48 cell line were either untreated or treated with BDNF, and then subjected to an apoptotic assay. Briefly, the cells were treated with 0.75 μM Staurosporine for 9 hours, and 1 hour before the termination of the experiment, the cells were treated with 10 μM MR (DEVD)2. The cells were then fixed with 4% paraformaldehyde for 15 minutes, washed with phosphate buffered saline (PBS), and incubated with Hoechst 33342 for 10 minutes. Cover slides were washed with PBS, mounted, and the cells were examined using a fluorescent microscope to see which cells turned red upon caspase cleavage.
Cell-based screen. To screen a large number of chemicals, a cell-based apoptic assay was developed using a cell permeable fluorescent dye, MR (DEVD)2, which turns red upon caspase cleavage in apoptotic cells. SN56 and T48 cells were plated at 10,000 cells per well in multiple 96-well plates and exposed to 2000 biologically active compounds from the Spectrum Collection Library for 30 minutes at a concentration of 10 μM in DMSO. Following exposure to the compounds, the cells were subjected to the developed fluorescent apoptotic assay described above (method schematically shown in FIG. 2).
In the initial screen, 5 of the 66 positive compounds were flavone derivatives or similar compounds. […] To compare the apoptosis inhibitory activity, the flavone derivatives were preincubated with SN56 and T48 cells, and subsequently were subjected to the fluorescent apoptotic assay as described above. […] Additionally, the effective concentration at which 50% (EC50) of the cells are protected from apoptosis was determined for 7,8-dihydroxyflavone, Cianidanol, Pinocembrin and Diosmetin.

hippocampal neurons = assay: Glutamate-triggered apoptosis in hippocampal neurons; assay type: cell-based; conditions: pretreated 30 minutes, 50 μM glutamate for 16 hours, compared with BDNF, FIG. 6
Description: To examine whether these compounds could promote neuronal survival, hippocampal neurons were prepared and the cultures were pretreated with various flavone derivatives for 30 minutes, followed by treatment with 50 μM glutamate for 16 hours.

Akt = assay: Western analysis of Akt phosphorylation in hippocampal neurons; assay type: cell-based
Description: To further examine whether 7,8-dihydroxyflavone can stimulate TrkB-mediated downstream signaling cascades, Western analysis was performed.
To probe the time course of 7,8-dihydroxyflavone triggered TrkB activation, hippocampal neurons were treated with 7,8-dihydroxyflavone at 500 nM and phosphorylation of Erk and Akt was determined over time by Western analysis. […] Stimulation of Erk and Akt by 7,8-dihydroxyflavone also occurred in a dose dependent manner.

TrkA [1] = biological target: T1, TrkA (Homo sapiens, UniProt P04629); assay: Tyrosine phosphorylation of Trk receptors in transfected HEK293 cells: TrkA; assay type: cell-based; conditions: FIG. 15
T1 construct: expressed in transfected cells; host or cells: HEK293
T1 sequence (P04629 33-796, species assumed): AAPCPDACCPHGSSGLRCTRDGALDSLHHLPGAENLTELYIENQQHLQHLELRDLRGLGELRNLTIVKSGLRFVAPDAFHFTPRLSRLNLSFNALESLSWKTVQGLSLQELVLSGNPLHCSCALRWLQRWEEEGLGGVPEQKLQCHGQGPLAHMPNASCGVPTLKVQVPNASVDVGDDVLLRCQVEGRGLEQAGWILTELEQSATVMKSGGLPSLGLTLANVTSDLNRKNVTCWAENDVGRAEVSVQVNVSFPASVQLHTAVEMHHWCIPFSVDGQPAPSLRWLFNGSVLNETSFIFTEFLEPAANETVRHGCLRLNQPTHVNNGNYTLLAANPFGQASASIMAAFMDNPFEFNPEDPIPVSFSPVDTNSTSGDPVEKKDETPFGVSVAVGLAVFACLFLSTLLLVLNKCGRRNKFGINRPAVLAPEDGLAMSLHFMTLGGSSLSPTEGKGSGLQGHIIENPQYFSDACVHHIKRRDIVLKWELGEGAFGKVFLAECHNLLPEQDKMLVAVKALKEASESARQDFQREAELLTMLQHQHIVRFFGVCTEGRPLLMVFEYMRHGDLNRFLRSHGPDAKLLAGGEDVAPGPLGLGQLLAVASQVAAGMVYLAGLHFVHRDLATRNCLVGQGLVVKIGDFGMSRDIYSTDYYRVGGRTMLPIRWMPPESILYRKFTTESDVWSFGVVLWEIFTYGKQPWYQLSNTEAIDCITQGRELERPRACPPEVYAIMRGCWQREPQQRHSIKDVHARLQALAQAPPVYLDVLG
From the text: To determine if 7,8-dihydroxyflavone promoted tyrosine phosphorylation of the other Trk receptors, HEK293 cells were transfected with various Trk receptors, followed by treatment with 7,8-dihydroxyflavone.

[2] = test system: KA-induced apoptosis in hippocampus; assay: Kainic acid-induced apoptosis in mouse hippocampus (TUNEL); assay type: in vivo, C57BL/6 mice; conditions: 5 mg/kg intraperitoneally followed by 20 mg/kg KA, 5 days, FIG. 19
From the text: Kainic acid (KA) is a potent agonist for the AMPA receptor. Peripheral injections of KA result in recurrent seizures and the subsequent degeneration of select populations of neurons in the hippocampus (Schauwecker and Steward, Proc. Natl. Acad. Sci. USA, 94:4103-8, 1997). KA induces neuronal cell death in a caspase-dependent and independent manners (Faherty et al., Brain Res. Mol. Brain. Res., 70:159-63, 1999; Glassford et al., Neurol. Res., 24:796-800, 2002; Liu et al., Mol. Cell, 29:665-78, 2008). To explore whether 7,8-dihydroxyflavone can block the neurotoxicity initiated by KA, C57BL/6 mice aged 60 days were intraperitoneally injected with either a single dose of 20% DMSO in saline, 20 mg/kg KA (Sigma), or 5 mg/kg of 7,8-dihydroxyflavone followed by 20 mg/kg of KA. In 5 days, the mice were anesthetized, perfused with 4% paraformaldehyde in 0.1M phosphate buffered saline, and the brains were removed, post-fixed overnight, and processed for paraffin embedding. Serial sections of the brain were cut to a thickness of 5 μm and mounted on slides (Superfrost-plus, Fisher; Pittsburgh, Pa.).

TrkB = biological target: T2, TrkB (Mus musculus, UniProt P15209); assay: Time course of TrkB activation in mouse brain; assay type: in vivo, C57BL/6J mice; conditions: 1 mg/kg, oral injection, FIG. 28
T2 construct: from tissue; host or cells: mouse brain
T2 sequence (P15209 32-821): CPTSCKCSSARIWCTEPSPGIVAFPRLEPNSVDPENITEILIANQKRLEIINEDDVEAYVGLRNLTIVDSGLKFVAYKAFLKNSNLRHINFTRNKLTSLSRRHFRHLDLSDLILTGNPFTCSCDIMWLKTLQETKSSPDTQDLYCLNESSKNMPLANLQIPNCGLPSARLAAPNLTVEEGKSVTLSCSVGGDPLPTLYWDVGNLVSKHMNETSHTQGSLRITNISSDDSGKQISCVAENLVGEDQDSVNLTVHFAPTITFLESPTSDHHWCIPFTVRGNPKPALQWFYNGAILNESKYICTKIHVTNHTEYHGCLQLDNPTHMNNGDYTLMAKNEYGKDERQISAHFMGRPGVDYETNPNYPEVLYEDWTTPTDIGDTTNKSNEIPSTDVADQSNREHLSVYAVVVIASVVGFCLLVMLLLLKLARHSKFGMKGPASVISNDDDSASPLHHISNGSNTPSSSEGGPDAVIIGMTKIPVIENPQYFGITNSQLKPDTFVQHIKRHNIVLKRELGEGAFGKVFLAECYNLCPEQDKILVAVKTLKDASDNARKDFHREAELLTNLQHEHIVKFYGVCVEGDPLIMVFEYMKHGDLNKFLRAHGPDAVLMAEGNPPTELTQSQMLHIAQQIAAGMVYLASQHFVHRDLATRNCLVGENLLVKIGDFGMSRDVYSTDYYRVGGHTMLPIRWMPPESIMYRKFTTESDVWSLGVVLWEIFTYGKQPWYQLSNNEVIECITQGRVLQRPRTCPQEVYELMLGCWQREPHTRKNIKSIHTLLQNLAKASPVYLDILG
Description: To compare the stimulatory effect on TrkB receptor in mouse brain, 1 mg/kg of these compounds was injected into C57BL/6J mice and monitored TrkB activation at different time points (see FIG. 28). […] In contrast, 7,8-DHF triggered TrkB activation 2 h after oral injection and peaked at 4 h and TrkB activity progressively faded away. The TrkB activity was demonstrable even at 16 h (FIG. 28).

[3] = test system: KA-induced neuronal apoptosis; assay: Kainic acid time course assay, oral TrkB agonists (caspase-3 immunoblot of brain lysates); assay type: in vivo, C57BL/6J mice; conditions: 1 mg/kg orally, KA 20 mg/kg i.p., FIG. 30 right
Description: Male C57BL/6 mice age 60 days were orally injected with a single dose of 4′-DMA-7,8-DHF or 7,8-DHF (1 mg/kg each). KA (20 mg/kg) was i.p. injected. Animals were continually monitored for 2 hours for the onset of seizure activity. At 0, 4 and 8 hours following TrkB agonist treatment, the animals were sacrificed and the brain lysates were analyzed by immunoblotting with p-TrkB-Y817, active caspase-3 and total TrkB antibodies.
To investigate whether these compounds exert any neuroprotective effects in animals, a time course assay was conducted.

TrkA [4] = biological target: TrkA (Mus musculus, UniProt Q3UFB7); assay: Trk activation in cortical neurons from wild-type and TrkB-null pups: TrkA; assay type: cell-based, mice; design: endogenous in cells; host or cells: primary cortical neurons of mouse pups; conditions: FIG. 21
Sequence of TrkA (Mus musculus, UniProt Q3UFB7) (Q3UFB7 34-799): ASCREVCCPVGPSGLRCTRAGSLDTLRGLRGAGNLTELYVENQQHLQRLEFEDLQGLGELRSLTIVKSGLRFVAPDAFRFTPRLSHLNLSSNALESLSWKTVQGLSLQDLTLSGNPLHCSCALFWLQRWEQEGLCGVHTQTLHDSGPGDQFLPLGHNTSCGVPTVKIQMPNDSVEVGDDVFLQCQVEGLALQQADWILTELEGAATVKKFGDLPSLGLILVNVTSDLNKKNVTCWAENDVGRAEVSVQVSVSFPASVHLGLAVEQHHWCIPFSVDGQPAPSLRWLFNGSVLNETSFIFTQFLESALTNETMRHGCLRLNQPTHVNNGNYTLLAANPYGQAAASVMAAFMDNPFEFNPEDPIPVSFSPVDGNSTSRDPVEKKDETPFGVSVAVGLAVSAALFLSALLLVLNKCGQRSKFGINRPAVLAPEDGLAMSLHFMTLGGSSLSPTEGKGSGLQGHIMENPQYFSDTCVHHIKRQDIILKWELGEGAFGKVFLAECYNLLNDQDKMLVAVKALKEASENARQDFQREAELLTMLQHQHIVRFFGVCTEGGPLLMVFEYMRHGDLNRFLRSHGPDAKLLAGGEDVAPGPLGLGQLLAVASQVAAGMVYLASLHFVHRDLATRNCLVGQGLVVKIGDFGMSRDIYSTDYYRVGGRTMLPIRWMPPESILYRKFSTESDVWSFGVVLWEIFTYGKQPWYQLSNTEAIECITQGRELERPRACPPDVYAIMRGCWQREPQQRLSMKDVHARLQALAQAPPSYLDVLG
Description: To determine whether 7,8-dihydroxyflavone can selectively activate TrkB receptor and prevent neuronal cell death, cortical neurons were prepared from homozygous pups of TrkB+/−mice, which were mated to the same genotype. […] Glutamate nonselectively elicited weak TrkA phosphorylation in both wild-type and TrkB-null neurons (FIG. 21, row 3).

O=c1cc(-c2ccccc2)oc2c(O)c(O)ccc12 [7,8-dihydroxyflavone]
EC50 (T48 cells; Mus musculus, read-out: effective concentration at which 50% (EC50) of the cells are protected from apoptosis): 35 nM | suppression of apoptosis in T48 cell line (T48 cells; Staurosporine-induced apoptosis, FIG. 1B and FIG. 4): strongly suppressed apoptosis | protection of hippocampal neurons from glutamate-induced apoptosis (hippocampal neurons): more protective effect on the neurons than did the positive control BDNF | time at which Akt phosphorylation peaked (Akt; 500 nM): 30 min | time at which Akt phosphorylation was seen (Akt; 500 nM): 10 min | time by which Akt phosphorylation faded (Akt; 500 nM): 180 min | Akt activation (Western) (Akt; FIG. 9): activated | concentration at which Akt activation was observed (Akt; treatment for 30 minutes): 100 nm | tyrosine phosphorylation of TrkA receptor (TrkA [1]): not | KA-induced apoptosis in hippocampus [2]: decreased KA-induced apoptosis | TrkB activity at 16 h (TrkB): demonstrable | time at which TrkB activation was elicited (TrkB): 2 h | time at which TrkB activity peaked (TrkB): 4 h | KA-induced caspase-3 activation at 4 h [3]: reduced | active caspase-3 at 8 h [3]: slightly increased | TrkA activation (TrkA [4]): not TrkA receptor

— patent US9895344B2, “Treating various disorders with 7,8-dihydroxyflavone and derivatives thereof” (EMORY UNIVERSITY, priority 2008, dated 2018)
